Data: US20110045101A1, “FUNGICIDAL SUBSTITUTED AZOLES” (E.I. Du Pont De Nemours and Company, priority 2009, published 2011)

Key:
Assay type in all cases: in vivo
Conditions in all cases: 200 ppm, 100 = 100% disease control
Botrytis cinerea = assay: Test C: tomato Botrytis on tomato seedlings, sprayed the day before inoculation, visual disease rating
Excerpt: General protocol for preparing test suspensions for Tests A-J: The test compounds were first dissolved in acetone in an amount equal to 3% of the final volume and then suspended at the desired concentration (in ppm) in acetone and purified water (50/50 mix) containing 250 ppm of the surfactant Trem® 014 (polyhydric alcohol esters). The resulting test suspensions were then used in tests A-J. Spraying a 200 ppm test suspension to the point of run-off on the test plants was the equivalent of a rate of 500 g/ha. […] The test suspension was sprayed to the point of run-off on tomato seedlings. […] A dash (-) indicates no test results. All results are for 200 ppm except where followed by “*”, which indicates 40 ppm.

Alternaria solani = assay: Test D: tomato early blight, sprayed the day before inoculation, visual disease rating
Excerpt: (§1) General protocol for preparing test suspensions for Tests A-J: The test compounds were first dissolved in acetone in an amount equal to 3% of the final volume and then suspended at the desired concentration (in ppm) in acetone and purified water (50/50 mix) containing 250 ppm of the surfactant Trem® 014 (polyhydric alcohol esters). The resulting test suspensions were then used in tests A-J. Spraying a 200 ppm test suspension to the point of run-off on the test plants was the equivalent of a rate of 500 g/ha. […] The test suspension was sprayed to the point of run-off on wheat seedlings. […] A dash (-) indicates no test results. All results are for 200 ppm except where followed by “*”, which indicates 40 ppm.

Septoria nodorum = assay: Test F: wheat glume blotch on wheat seedlings, sprayed the day before inoculation, visual disease rating
Excerpt: as §1

Septoria tritici = assay: Test G: wheat leaf blotch on wheat seedlings, sprayed the day before inoculation, visual disease rating
Excerpt: General protocol for preparing test suspensions for Tests A-J: The test compounds were first dissolved in acetone in an amount equal to 3% of the final volume and then suspended at the desired concentration (in ppm) in acetone and purified water (50/50 mix) containing 250 ppm of the surfactant Trem® 014 (polyhydric alcohol esters). The resulting test suspensions were then used in tests A-J. Spraying a 200 ppm test suspension to the point of run-off on the test plants was the equivalent of a rate of 500 g/ha. […] The test suspension was sprayed to the point of run-off on wheat seedlings. The following day the seedlings were inoculated with a spore suspension of Septoria tritici (the causal agent of wheat leaf blotch) and incubated in saturated atmosphere at 24° C. for 48 h, and then moved to a growth chamber at 20° C. for 19 days, after which time visual disease ratings were made. […] A dash (-) indicates no test results. All results are for 200 ppm except where followed by “*”, which indicates 40 ppm.

[1] = tested on: Puccinia recondita f. sp. tritici; assay: Test I: wheat leaf rust on wheat seedlings, sprayed the day before inoculation, visual disease rating
Excerpt: as §1

[2] = tested on: Erysiphe graminis f. sp. tritici; assay: Test J: wheat powdery mildew on wheat seedlings, sprayed the day before inoculation, visual disease rating
Excerpt: as §1

[3] = 0 = no control relative to controls

SMILES	Test C disease control rating (Botrytis cinerea; [3]) [%]	Test D disease control rating (Alternaria solani; [3]) [%]	Test F disease control rating (Septoria nodorum; [3]) [%]	Test G disease control rating (Septoria tritici; [3]) [%]	Test I disease control rating [1, 3] [%]	Test J disease control rating [2, 3] [%]	Test C disease control rating (Botrytis cinerea; 0 = no control) [%]	Test D disease control rating (Alternaria solani; 0 = no control) [%]	Test F disease control rating (Septoria nodorum; 0 = no control) [%]	Test G disease control rating (Septoria tritici; 0 = no control) [%]	Test I disease control rating ([1]; 0 = no control) [%]	Test J disease control rating ([2]; 0 = no control) [%]	other results
Cc1nc(Cl)c(-c2c(F)cccc2F)n1-c1ccc(F)cc1 [compound 83]	97	100	99	98	100	100	–	–	–	–	–	–	–
CSc1ccc(F)c(-c2c(Cl)nc(Br)n2-c2ccc(Cl)cc2)c1F [compound 231]	–	–	–	–	–	–	87	61	100	99	96	98	–
Cc1ccc(-n2c(Cl)nc(Cl)c2-c2c(F)ccc(F)c2Cl)cc1 [compound 198]	–	–	–	–	–	–	98	99	0	90	100	95	–
COc1cc(F)c(-c2c(-c3cccc(F)c3)c(C)nn2C)c(F)c1 [compound 78]	91	100	0	92	99	100	–	–	–	–	–	–	–
Fc1cccc(F)c1-c1c(Cl)nc(Br)n1-c1cccc(Cl)c1 [compound 221]	–	–	–	–	–	–	99	99	0	95	97	98	–
COc1ccc(F)c(-c2c(Cl)nc(Br)n2-c2ccc(I)cc2)c1F [compound 443]	99	99	99	97	89	100	–	–	–	–	–	–	–
Fc1ccc(-n2c(Cl)nc(Cl)c2-c2c(F)cc(F)cc2F)cc1 [compound 147]	–	–	–	–	–	–	91	100	82	100	100	99	–
Cn1nc(Br)c(-c2c(F)cccc2F)c1-c1ccc(Cl)cc1 [Compound 125, 3-bromo-5-(4-chlorophenyl)-4-(2,6-difluorophenyl)-1-methyl-1H-pyrazole]	–	–	–	–	–	–	–	–	–	–	–	–	pest or weed control at 200 ppm (Botrytis cinerea; Botrytis cinerea, 120 h, 0 = no control relative to controls): 98%; pest or weed control at 200 ppm (Alternaria solani; Alternaria solani, 168 h, 0 = no control relative to controls): 100%; pest or weed control at 200 ppm (Septoria nodorum; Parastagonospora nodorum, 264 h, 0 = no control relative to controls): 0%; pest or weed control at 200 ppm (Septoria tritici; Zymoseptoria tritici, 504 h, 0 = no control relative to controls): 92%; pest or weed control at 200 ppm ([1]; Puccinia recondita, 168 h, 0 = no control relative to controls): 91%; pest or weed control at 200 ppm ([2]; Blumeria graminis, 168 h, 0 = no control relative to controls): 100%
Cc1nc(Cl)c(-c2ccc(F)cc2Cl)n1-c1ccc(Cl)cc1 [compound 49]	98	100	100	94	99	99	–	–	–	–	–	–	–
COc1cc(F)c(-c2c(C)nc(Cl)n2-c2ccc(Cl)c(F)c2)c(F)c1 [compound 261]	–	–	–	–	–	–	99	100	100	95	100	100	–
